Values quoted from earlier work in US20180344730A1, “MEDICAMENT FOR TREATING MENTAL AND BEHAVIOURAL DISORDERS” (Sumitomo Dainippon Pharma Co., Ltd., priority 2012, published 2018).

Tests used:
muscarinic M1 receptors = target: T1, muscarinic M1 receptors (Homo sapiens, UniProt P11229)
T1 sequence (P11229 1-460): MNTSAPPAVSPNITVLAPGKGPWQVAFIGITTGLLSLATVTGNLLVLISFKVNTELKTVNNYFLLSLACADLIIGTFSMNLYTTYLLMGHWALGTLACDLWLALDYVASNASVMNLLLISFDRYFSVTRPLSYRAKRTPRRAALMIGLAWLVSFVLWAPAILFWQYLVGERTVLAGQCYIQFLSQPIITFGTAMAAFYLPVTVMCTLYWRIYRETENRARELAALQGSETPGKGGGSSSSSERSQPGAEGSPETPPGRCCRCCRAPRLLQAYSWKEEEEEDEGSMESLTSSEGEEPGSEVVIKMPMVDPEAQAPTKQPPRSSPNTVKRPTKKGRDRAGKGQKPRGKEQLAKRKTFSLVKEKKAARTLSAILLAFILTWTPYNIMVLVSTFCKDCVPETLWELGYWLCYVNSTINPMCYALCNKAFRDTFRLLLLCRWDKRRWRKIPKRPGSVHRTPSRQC

[1] = target: serotonin 5-HT7 receptors (Homo sapiens, UniProt P34969)
[2] = target: serotonin 5-HT2A receptors (Homo sapiens, UniProt P28223)
dopamine D2 receptors = dopamine D2 receptors (Homo sapiens, UniProt P14416)
histamine H1 receptors = histamine H1 receptors (Homo sapiens, UniProt P35367)
[3] = target: T2, noradrenaline α2C receptors (Homo sapiens, UniProt P18825)
T2 sequence (P18825 1-462): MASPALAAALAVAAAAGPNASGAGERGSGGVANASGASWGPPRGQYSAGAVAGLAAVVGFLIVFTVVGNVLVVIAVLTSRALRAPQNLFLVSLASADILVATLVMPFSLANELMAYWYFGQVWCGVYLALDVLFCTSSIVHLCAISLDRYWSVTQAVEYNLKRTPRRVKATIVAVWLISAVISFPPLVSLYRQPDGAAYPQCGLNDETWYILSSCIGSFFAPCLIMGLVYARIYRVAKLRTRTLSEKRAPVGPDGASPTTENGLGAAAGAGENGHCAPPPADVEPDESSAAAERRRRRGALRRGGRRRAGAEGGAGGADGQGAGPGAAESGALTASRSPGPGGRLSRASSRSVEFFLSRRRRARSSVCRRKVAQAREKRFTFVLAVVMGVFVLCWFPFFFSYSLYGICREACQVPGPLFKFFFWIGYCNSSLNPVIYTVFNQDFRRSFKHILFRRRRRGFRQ

[4] = target: T3, serotonin 5-HT1A receptors (Homo sapiens, UniProt P08908)
T3 sequence (P08908 1-422): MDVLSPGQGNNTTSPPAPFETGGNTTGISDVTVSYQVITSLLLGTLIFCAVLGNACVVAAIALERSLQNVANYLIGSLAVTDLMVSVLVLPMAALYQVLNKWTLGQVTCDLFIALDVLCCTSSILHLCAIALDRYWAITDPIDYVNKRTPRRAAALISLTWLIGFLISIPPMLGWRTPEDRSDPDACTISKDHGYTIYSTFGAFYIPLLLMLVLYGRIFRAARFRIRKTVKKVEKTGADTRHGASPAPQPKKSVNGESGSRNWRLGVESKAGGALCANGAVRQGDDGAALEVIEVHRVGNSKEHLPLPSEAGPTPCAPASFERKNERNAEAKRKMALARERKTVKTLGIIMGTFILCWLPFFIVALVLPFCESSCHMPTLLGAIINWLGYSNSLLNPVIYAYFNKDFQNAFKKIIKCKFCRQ

dopamine D2 receptors, sequence (P14416 whole entry): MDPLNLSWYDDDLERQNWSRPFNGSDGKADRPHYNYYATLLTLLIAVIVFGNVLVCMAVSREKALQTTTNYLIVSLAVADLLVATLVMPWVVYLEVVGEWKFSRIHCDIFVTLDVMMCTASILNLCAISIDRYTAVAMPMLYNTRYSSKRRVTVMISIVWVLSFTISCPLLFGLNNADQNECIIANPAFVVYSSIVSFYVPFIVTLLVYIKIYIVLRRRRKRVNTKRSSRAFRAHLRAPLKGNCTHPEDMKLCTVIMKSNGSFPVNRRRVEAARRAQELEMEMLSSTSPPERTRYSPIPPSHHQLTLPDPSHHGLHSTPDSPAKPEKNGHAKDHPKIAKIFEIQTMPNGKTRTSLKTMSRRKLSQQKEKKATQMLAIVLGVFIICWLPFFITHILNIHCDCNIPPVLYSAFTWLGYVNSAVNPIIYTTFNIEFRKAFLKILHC
serotonin 5-HT7 receptors, sequence (P34969 whole entry): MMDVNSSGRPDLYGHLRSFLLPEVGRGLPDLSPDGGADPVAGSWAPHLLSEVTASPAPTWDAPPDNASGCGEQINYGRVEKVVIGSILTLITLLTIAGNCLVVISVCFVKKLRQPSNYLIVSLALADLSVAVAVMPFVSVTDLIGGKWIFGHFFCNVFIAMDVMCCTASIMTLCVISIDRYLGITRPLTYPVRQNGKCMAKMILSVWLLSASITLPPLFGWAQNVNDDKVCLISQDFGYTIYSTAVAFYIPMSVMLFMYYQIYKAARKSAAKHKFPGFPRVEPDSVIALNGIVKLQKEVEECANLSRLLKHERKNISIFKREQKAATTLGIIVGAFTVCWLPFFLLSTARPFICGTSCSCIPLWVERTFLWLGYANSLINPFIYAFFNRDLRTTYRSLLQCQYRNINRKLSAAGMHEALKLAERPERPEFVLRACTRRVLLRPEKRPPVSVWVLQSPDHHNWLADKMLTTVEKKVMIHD
histamine H1 receptors, sequence (P35367 whole entry): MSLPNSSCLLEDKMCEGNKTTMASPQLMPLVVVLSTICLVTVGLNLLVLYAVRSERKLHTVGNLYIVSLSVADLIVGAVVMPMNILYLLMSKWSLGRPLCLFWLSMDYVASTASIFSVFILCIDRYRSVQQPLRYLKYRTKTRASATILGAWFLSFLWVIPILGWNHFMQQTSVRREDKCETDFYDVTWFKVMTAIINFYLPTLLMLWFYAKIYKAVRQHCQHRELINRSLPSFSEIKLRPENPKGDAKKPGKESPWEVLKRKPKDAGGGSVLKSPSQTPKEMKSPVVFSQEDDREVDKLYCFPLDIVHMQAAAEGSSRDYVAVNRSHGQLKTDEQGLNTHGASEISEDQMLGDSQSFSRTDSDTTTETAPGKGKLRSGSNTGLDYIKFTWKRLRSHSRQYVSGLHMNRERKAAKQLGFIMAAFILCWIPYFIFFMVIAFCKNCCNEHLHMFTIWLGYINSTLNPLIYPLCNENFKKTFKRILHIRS
serotonin 5-HT2A receptors, sequence (P28223 whole entry): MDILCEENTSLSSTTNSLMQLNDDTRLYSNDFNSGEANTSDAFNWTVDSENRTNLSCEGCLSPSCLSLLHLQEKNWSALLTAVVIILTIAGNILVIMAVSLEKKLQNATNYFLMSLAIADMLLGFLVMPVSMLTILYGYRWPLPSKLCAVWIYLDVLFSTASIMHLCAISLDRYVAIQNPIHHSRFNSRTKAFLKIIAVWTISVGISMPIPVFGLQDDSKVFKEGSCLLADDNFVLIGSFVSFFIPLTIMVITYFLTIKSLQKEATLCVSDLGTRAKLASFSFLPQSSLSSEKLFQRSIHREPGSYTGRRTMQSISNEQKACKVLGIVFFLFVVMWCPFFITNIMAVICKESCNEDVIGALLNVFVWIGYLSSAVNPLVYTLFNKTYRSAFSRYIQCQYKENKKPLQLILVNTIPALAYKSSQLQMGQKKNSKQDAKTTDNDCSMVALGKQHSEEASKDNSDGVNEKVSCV

affinity for muscarinic M1 receptors (muscarinic M1 receptors): minimal to no affinity
affinity for serotonin 5-HT7 receptors [1]: high affinity
affinity for serotonin 5-HT2A receptors [2]: high affinity
affinity for dopamine D2 receptors (dopamine D2 receptors): high affinity
affinity for histamine H1 receptors (histamine H1 receptors): minimal to no affinity
affinity for noradrenaline α2C receptors [3]: high affinity
affinity for serotonin 5-HT1A receptors [4]: high affinity
Structure (SMILES): O=C1[C@@H]2[C@H]3CC[C@H](C3)[C@@H]2C(=O)N1C[C@@H]1CCCC[C@H]1CN1CCN(c2nsc3ccccc23)CC1 [Lurasidone, (3aR, 4S, 7R, 7aS)-2-{(1R, 2R)-2-[4-(1,2-benzisothiazol-3-yl)piperazin-1-ylmethyl]cyclo-hexylmethyl}hexahydro-4,7-methano-2H-isoindole-1,3-dione]
